From the CheMixHub viscosity set

Experiment: xn = mol fraction of the nth substance listed

COC(C)=O + CCCCCO
298.15 K, 101.33 kPa
Settings | viscosity [mPa·s]
x1 = 0.1014 | 2.381
x1 = 0.2082 | 1.64
x1 = 0.2879 | 1.292
x1 = 0.3821 | 1.011
x1 = 0.4786 | 0.823
x1 = 0.5766 | 0.69
x1 = 0.6788 | 0.575
x1 = 0.7517 | 0.505
x1 = 0.846 | 0.425

C1CCCCC1 + CO
viscosity [mPa·s], 101.32 kPa
Settings | 321.15 K | 322.15 K | 323.15 K
x2 = 0.121 | 0.5549 | 0.5469 | 0.539
x2 = 0.226 | 0.5465 | 0.5386 | 0.5465
x2 = 0.396 | 0.5423 | 0.5334 | 0.5239
x2 = 0.467 | 0.5629 | 0.5508 | 0.5356
x2 = 0.5 | 0.5933 | 0.5559 | 0.5379
x2 = 0.527 | 0.5771 | 0.5464 | 0.53
x2 = 0.637 | 0.5116 | 0.5017 | 0.4925
x2 = 0.724 | 0.4688 | 0.4624 | 0.4564
x2 = 0.762 | 0.4569 | 0.4514 | 0.4459
x2 = 0.798 | 0.4443 | 0.4363 | 0.4338
x2 = 0.83 | 0.4338 | 0.4284 | 0.4233
x2 = 0.86 | 0.4249 | 0.4198 | 0.4148
x2 = 0.913 | 0.4122 | 0.4074 | 0.4024
x2 = 0.959 | 0.4053 | 0.4003 | 0.3956

CCCCCCCC(=O)OCC + CC(C)CCO
100 kPa
Settings | viscosity [mPa·s]
298.15 K, x1 = 0.3 | 1.885
308.15 K, x1 = 0.5001 | 1.315
313.15 K, x1 = 0.1 | 1.845

COc1ccccc1N + CNC=O
viscosity [mPa·s], 100 kPa
Settings | x2 = 0.0714 | x2 = 0.1715 | x2 = 0.2636 | x2 = 0.3576 | x2 = 0.4701 | x2 = 0.5625 | x2 = 0.6556 | x2 = 0.7454 | x2 = 0.8325
303.15 K | 4.69 | 4.361 | 4.058 | 3.747 | 3.373 | 3.065 | 2.753 | 2.45 | 2.155
308.15 K | 4.301 | 4.001 | 3.725 | 3.441 | 3.1 | 2.817 | 2.532 | 2.256 | 1.986
313.15 K | 3.99 | 3.713 | 3.456 | 3.192 | 2.875 | 2.613 | 2.348 | 2.091 | 1.841
318.15 K | 3.702 | 3.446 | 3.209 | 2.964 | 2.67 | 2.428 | 2.182 | 1.944 | 1.711

COCCOC + c1ccccc1
298.15 K, 101 kPa
Settings | viscosity [mPa·s]
x1 = 0.0878 | 0.571
x1 = 0.1781 | 0.545
x1 = 0.2708 | 0.524
x1 = 0.3662 | 0.504
x1 = 0.4643 | 0.484
x1 = 0.5652 | 0.467
x1 = 0.6691 | 0.45
x1 = 0.7761 | 0.435
x1 = 0.8864 | 0.42

COCCOC + Clc1ccccc1
298.15 K, 101 kPa
Settings | viscosity [mPa·s]
x1 = 0.1219 | 0.721
x1 = 0.2379 | 0.685
x1 = 0.3487 | 0.649
x1 = 0.4543 | 0.611
x1 = 0.5554 | 0.573
x1 = 0.652 | 0.537
x1 = 0.7445 | 0.503
x1 = 0.8332 | 0.47
x1 = 0.9183 | 0.439
